In test [1] the test system is KRas G12D-mediated phosphorylation of ERK. Kind of test: Inhibition of KRas G12D-mediated phosphorylation of ERK in AGS cells. It counts as cell-based. To be noted: Homo sapiens; AGS cells expressing G12D, 3 hours, phospho-ERK normalized to GAPDH. The method, then: AGS cells (ATCC CRL-1739) expressing G12D were grown in DMEM medium supplemented with 10% fetal bovine serum, 10 mM HEPES, and Penicillin/Streptomycin. Cells were plated in tissue culture treated 96 well plates at a density of 40,000 cells/well and allowed to attach for 12-14 hours. Diluted compounds were then added in a final concentration of 0.5% DMSO. After 3 hours, the medium was removed, 150 μl of 4.0% formaldehyde was added and the plates incubated at room temperature for 20 minutes. The plates were washed with PBS, and permeabilized with 150p of ice cold 100% methanol for 10 minutes. Non-specific antibody binding to the plates was blocked using 100 μL Licor blocking buffer (Li-Cor Biotechnology, Lincoln NE) for 1 hour at room temperature.
The amount of phosho-ERK was determined using an antibody specific for the phosphorylated form of ERK and compared to the amount of GAPDH. Primary antibodies used for the detection were added as follows: Phospho-ERK (Cell Signaling cs-9101) diluted 1:500 and GAPDH (Millipore MAB374) diluted 1:5000 in Licor block+0.05% Tween 20. The plates were incubated for 2 hours at room temperature. The plates were washed with PBS+0.05% Tween 20.
Secondary antibodies used to visualize primary antibodies were added as follows: Anti-rabbit-680 diluted 1:1000 and Anti-mouse-800 diluted 1:1000 both in Licor block+0.05% Tween20, and were incubated for 1 hour at room temperature. The plates were washed with PBS +0.05% Tween 20. A 100 μl aliquot of PBS was added to each well and the plates were read on a Li-Cor Odyssey CLX plate reader phospho-ERK (Thr202/Tyr204) signal was normalized to the GAPDH signal for each well and percent of DMSO control values were calculated. IC50 values were generated using a 4-parameter fit of the dose response curve

For test [2], the target named is T1, GDP-loaded recombinant human KRAS G12D (Homo sapiens, UniProt P01116, G12D).
T1 construct: corresponding to amino acids 1:169, produced at Array BioPharma; biotin (biotinylated); made in house
T1 sequence (P01116 1-169 isoform P01116-2 G12D): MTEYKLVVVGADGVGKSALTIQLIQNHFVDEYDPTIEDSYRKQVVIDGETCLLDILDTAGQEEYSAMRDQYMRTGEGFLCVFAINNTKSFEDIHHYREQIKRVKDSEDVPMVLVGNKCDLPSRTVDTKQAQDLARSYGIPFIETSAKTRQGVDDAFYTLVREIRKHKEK
Kind of test: KRas G12D Binding Assay (TR-FRET displacement of Cy5 labelled tracer). To be noted: 60 minute incubation at 22° C. The method, then:
This Example illustrates that exemplary compounds of the present invention bind to KRas G12D and are capable of displacing a labeled tracer ligand occupying the KRas G12D binding site.
The ability of a compound to bind to KRAS G12D was measured using a TR-FRET displacement assay. Biotinylated GDP-loaded recombinant human KRAS G12D (corresponding to amino acids 1:169, produced at Array BioPharma) was incubated with a custom-made Cy5 labelled tracer, europium labelled streptavidin and compound (2% DMSO final) in buffer (50 mM HEPES [pH 7.5], 5 mM MgCl2, 0.005% Tween-20 & 1 mM DTT). After a 60 minute incubation at 22° C., the reaction was measured using a PerkinElmer EnVision multimode plate reader via TR-FRET dual wavelength detection, and the percent of control (POC) calculated using a ratiometric emission factor. […] The POC values were fit to a 4-parameter logistic curve and the IC50 value was determined as the concentration where the curve crosses 50 POC.
On the technique in general: In TR-FRET formats the signal depends on donor and acceptor labels being close together.

In a further test the target is T2, KRas G12D (Homo sapiens, UniProt P01116, G12D).
T2 construct: Avidin-tag (so in the source)
T2 sequence (P01116 1-188 isoform P01116-2 G12D): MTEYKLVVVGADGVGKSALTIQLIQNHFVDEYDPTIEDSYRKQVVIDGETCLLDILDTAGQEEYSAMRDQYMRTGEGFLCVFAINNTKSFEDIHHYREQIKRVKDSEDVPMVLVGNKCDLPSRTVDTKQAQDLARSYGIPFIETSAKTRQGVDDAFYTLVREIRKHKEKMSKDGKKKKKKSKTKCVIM
Kind of test: KRas G12D Surface Plasmon Resonance (SPR) Binding Assay. The conditions noted are these: Biacore T200, 20° C., 1:1 binding model, read-out: KD (nM), Determination of KRas G12D KD. The method, then: This Example illustrates that exemplary compounds of the present invention bind to KRas G12D as measured by surface plasmon resonance (SPR).
Briefly, 1 L of 1.05×HBS-Mg buffer (262.5 mM BioUltra Hepes, pH 7.5, 157.5 mM NaCl, 105 mM MgCl2, 0.525 mM TCEP, 0.0305% Brij-35) was prepared and filter sterilized using a 0.22 μm bottle top filter. Approximately 50 mL of 1.05×HBS-Mg buffer was removed and saved for future dilutions. A 50 mL aliquot of DMSO (Sigma Aldrich DMSO Lot. #SHBK2079) was added and continued to stir for 10 minutes, creating the final 1.0×HBS-Mg buffer (250 mM BioUltra Hepes pH 7.5, 150 mM NaCl, 100 mM MgCl2, 0.5 mM TCEP, 0.03% Brij-35).
Biacore T200 instrument was primed using 1.0×HBS-Mg buffer before docking a GE Streptavidin (SA) chip and then primed two additional times prior to beginning the immobilization step. All immobilized protein mixtures were created using 3-5 mg/mL Biotinylated Avidin-tagged KRAS protein using the following immobilization settings: SA chip type, 1 flow cells per cycle, 720 second contact time, and 5 μL/min flow rate. Normalization of the detector was also performed during the immobilization step using the GE BiaNormalize solution.
All compounds were diluted to 10 mM in 100% DMSO prior to being diluted 20× in 1.05× buffer. Another 10× dilution was created using 1.0× buffer prior to performing a series of 3×dilutions to create a compound concentration curve using the following assay settings: 20° C. analysis temperature, General Settings=10 Hz data collection rate and multi-detection; Assay Steps=all set to LMW kinetics; Cycle Types=LMW kinetics (60 s contact time, 120 s dissociation time, 100 μL/min flow rate, extra wash after injection with 50% DMSO, flow path 1, 2, 3, 4); Flow path detection=2−1, 4−3). Data evaluation was performed using the Biacore T200 Evaluation software and data fit to 1:1 binding model.
A general note: SPR reads the build-up and loss of mass on a sensor chip optically.

In the case of `CN1CC(F)(F)C[C@H]1COc1nc(N2C[C@H]3CC[C@@H](C2)N3)c2ccc(-c3cc(O)cc4ccccc34)c(F)c2n1` [Example 31, 4-(4-((1R,5S)-3,8-diazabicyclo[3.2.1]octan-3-yl)-2-(((S)-4,4-difluoro-1-methylpyrrolidin-2-yl)methoxy)-8-fluoroquinazolin-7-yl)naphthalen-2-ol], the IC50 in test [1] worked out at 8500 nM; in test [2], 297 nM. The Kd on KRas G12D is 121 nM.

What is called IC50 is the midpoint of a concentration-inhibition curve. One may read the Kd as the constant that tells how readily two partners part at equilibrium.
